Laboratory results from paper PMC12374030, “Hydroxyalkyne–Bithiophene Derivatives: Synthesis and Antileishmanial Activity” (Chemical Biology & Drug Design, 2025).
*1 amine or outer side, *2 acyl side, *3 side chain or, on linkers, in order; H or OH if unused. Where a SMILES comes first, the peptide text is derived from it. Bridges are numbered along the chain shown (N, C = ends). Roman numbers before positions name the chains, in order. [ ]: non-standard residue; d: D form. Actinocin(9to1) = Cc1c2oc3c(C)ccc(C(=O)[*:1])c3nc-2c(C(=O)[*:2])c(N)c1=O; NMeV = CN[C@H](C(=O)O)C(C)C; Sar = CNCC(=O)O

Key:
[1] = tested on: L. amazonensis promastigotes; test: Cell size (FSC-H, flow cytometry); type: cell-based, Leishmania amazonensis; design: reduction in cell size: dose or concentration left out as unconfirmed; conditions: positive control, 24 h
Procedure: Promastigotes at 1 × 10^6 parasites mL^−1 treated with BT‐1 for 24 h were washed twice and resuspended in phosphate‐buffered saline (PBS), then analyzed using a FACSCalibur flow cytometer (BD Biosciences, Franklin Lakes, NJ, USA) equipped with CellQuest software. As a positive control, […] actinomycin D was used. A total of 10,000 events were acquired in the region that corresponded to the parasites. Histograms were generated for each sample, where the forward light scatter (FSC‐H) represents the cell volume (Lazarin‐Bidóia et al. [2013]).

[2] = tested on: L. amazonensis promastigotes; test: Mitochondrial membrane potential (Rh123, flow cytometry); type: cell-based, Leishmania amazonensis; conditions: 24 h
Procedure: Promastigotes at 1 × 10^6 parasites mL^−1 treated with BT‐1 for 24 h were incubated with 5 μg mL^−1 Rh123, a fluorescent probe that accumulates in mitochondria, for 15 min (Menna‐Barreto, Corrêa, et al. [2009]; Menna‐Barreto, Goncalves, et al. [2009]). As a positive control, 100 μM CCCP was used. The data acquisition and analysis were performed using a FACSCalibur flow cytometer (BD Biosciences, Franklin Lakes, NJ, USA) equipped with CellQuest software. A total of 10,000 events were acquired in the region corresponding to the parasites.

[3] = tested on: L. amazonensis promastigote forms; test: Antiproliferative assay (XTT); type: cell-based, Leishmania amazonensis; conditions: for IC50: Leishmania amazonensis, 72 h, 25°C, XTT, read-out: L. amazonensis (promastigotes) IC50; for Selectivity index (SI): ratio between the CC50 (J774A.1 macrophages) and IC50 (promastigotes)
Procedure: L. amazonensis MHOM/BR/75/Josefa strain was originally isolated from a human case of CL by Dr. […]. Cuba at the University of Brasilia, Brazil (Saraiva et al. [1983]; Cuba et al. [1985]). […] The activity against promastigotes was evaluated by XTT (0.5 mg mL^-1), as previously described (Meshulam et al. [1995]). Absorbance was read in a microplate spectrophotometer (PowerWave XS; BioTek, Winooski, VT, USA) at 450 nm.

[4] = Cytotoxicity assay in macrophages (MTT); type: cell-based; conditions: mouse, J774A.1 macrophages, pH 7.2
Procedure: L. amazonensis MHOM/BR/75/Josefa strain was originally isolated from a human case of CL by Dr. Cesar A. Cuba at the University of Brasilia, Brazil (Saraiva et al. [1983]; Cuba et al. [1985]). Promastigote forms of this strain were maintained axenically in Warren's medium (brain–heart infusion plus hemin and folic acid; pH 7.2) supplemented with 10% heat‐inactivated FBS and maintained at 25°C. J774A.1 macrophages (obtained from the Cell Bank of Rio de Janeiro, RJ, Brazil) were maintained in RPMI‐1640 medium (pH 7.2), supplemented with sodium bicarbonate, L‐glutamine, 10% FBS, and streptomycin and penicillin at 37°C in a 5% CO2 atmosphere.
Cytotoxicity was evaluated in the J774A.1 macrophages. Macrophages (5 × 10^5 cells mL^−1) were cultured in 96‐well microplates containing RPMI‐1640 medium supplemented with 10% FBS. The plates were incubated at 37°C in a 5% CO2 atmosphere for confluent growth of the cells. After 24 h, the compounds were added to each well at increasing concentrations (31.25–1000 μM) and incubated for 48 h at 37°C in a 5% CO2 atmosphere. The cytotoxicity was evaluated by MTT (2 mg mL^−1), as previously described (Mosmann [1983]). Absorbance was read in a microplate spectrophotometer (PowerWave XS; BioTek, […], VT, USA) at 570 nm.

[5] = tested on: L. amazonensis promastigotes; test: Reactive oxygen species production (H2DCFDA); type: cell-based, Leishmania amazonensis; conditions: positive control, 50 μM
Procedure: Promastigotes at 1 × 10^6 parasites mL^−1 treated with BT‐1 for 24 h were incubated with 10 μM H2DCFDA in the dark for 45 min. As a positive control, 50 μM H2O2 was used. The fluorescence was determined by oxidation of H2DCFDA to the fluorescent product, 2′‐7ʹ dichlorofluorescein (DCF), which was measured in a Victor X3 spectrofluorimeter (PerkinElmer, Waltham, MA, USA) at λex of 488 nm and λem of 530 nm (Shukla et al. [2012]).

[6] = tested on: L. amazonensis promastigotes; test: Lipid peroxidation assay (DPPP); type: cell-based, Leishmania amazonensis; conditions: positive control, 50 μM
Procedure: Promastigotes at 1 × 10^6 parasites mL^−1 treated with BT‐1 for 24 h were incubated with 50 μM DPPP for 15 min at 22°C. As a positive control, 50 μM H2O2 was used. The fluorescence was determined in a Victor X3 spectrofluorimeter (PerkinElmer, Waltham, MA, USA) at λex of 355 nm and λem of 460 nm. DPPP is essentially nonfluorescent until it is oxidized to a phosphine oxide (DPPP‐O) by peroxides (Okimoto et al. [2000]).

[7] = tested on: L. amazonensis promastigotes; test: Cell membrane integrity (PI, flow cytometry); type: cell-based, Leishmania amazonensis; conditions: positive control, 40 μM, 5 min
Procedure: Promastigotes at 1 × 10^6 parasites mL^−1 treated with BT‐1 for 24 h were incubated with 0.2 μg mL^−1 PI for 10 min. As a positive control, 40 μM digitonin was used. The data acquisition and analysis were performed using a FACSCalibur flow cytometer (BD Biosciences, Franklin Lakes, NJ, USA) equipped with CellQuest software. A total of 10,000 events were acquired in the region that corresponded to the parasites. Alterations in PI fluorescence were quantified as the percentage increase in fluorescence compared with the untreated parasites (Lazarin‐Bidóia et al. [2013]).

[8] = tested on: L. amazonensis promastigotes; test: Cell cycle (PI-RNAse A, flow cytometry); type: cell-based, Leishmania amazonensis; conditions: positive control, 40 μM, 24 h
Procedure: Promastigotes at 1 × 10^6 parasites mL^−1 treated with BT‐1 for 24 h were fixed in 70% cold methanol in PBS at 4°C for 2 h. Afterward, the parasites were washed in PBS, 10 μg mL^−1 PI‐RNAse A was added, and the samples were incubated at 37°C for 45 min. The data acquisition and analysis were performed using a FACSCalibur flow cytometer (BD Biosciences, Franklin Lakes, NJ, USA) equipped with CellQuest software. A total of 10,000 events were acquired in the region that corresponded to the parasites. As a positive control, 40 μM miltefosine was used. The percentages of cells in each stage of the cell cycle were determined based on the intensity of the PI fluorescence, which is directly proportional to the DNA content.

Row | Compound | IC50 [3] [µM] | Selectivity index (SI) [3] | CC50 at 48 h [4] [µM] | further results
1 | Cc1c2oc3c(C)ccc(C(=O)N[C@@H]4C(=O)N[C@H](C(C)C)C(=O)N5CCC[C@H]5C(=O)N(C)CC(=O)N(C)[C@@H](C(C)C)C(=O)O[C@@H]4C)c3nc-2c(C(=O)N[C@@H]2C(=O)N[C@H](C(C)C)C(=O)N3CCC[C@H]3C(=O)N(C)CC(=O)N(C)[C@@H](C(C)C)C(=O)O[C@@H]2C)c(N)c1=O [Actinomycin D, reference compound] (I: T[dV]P[Sar][NMeV] / II: T[dV]P[Sar][NMeV]; ester I:1-I:C, II:1-II:C; linker I:N-II:N via Actinocin(9to1)) |  |  |  | reduction in cell size [1]: 2.05 fold
2 | N#CC(C#N)=NNc1cccc(Cl)c1 [CCCP, carbonyl cyanide m‐chlorophenylhydrazone, reference compound] |  |  |  | Mitochondrial potential: Average (Median) ([2]; positive control 100 μM, Rh123 fluorescence): 6.38; reduction in the mitochondrial membrane potential ([2]; positive control, 100 μM): 342.8 fold
3 | O=Cc1ccc(-c2ccc(C#CCCO)s2)s1 [Compound 2, 5′‐(4‐hydroxy‐but‐1‐ynyl)‐[2,2′]bithiophenyl‐5‐carbaldehyde] | 25.1 ± 0.8 | 7.90 | 198 ± 3.9 | 
4 | CC(C)N=Cc1ccc(-c2ccc(C#CCCO)s2)s1 [Compound 2a] | 44.1 ± 2 | 6.56 | 289 ± 6.5 | 
5 | CCCCN=Cc1ccc(-c2ccc(C#CCCO)s2)s1 [Compound 2b] | 48.5 ± 4.2 | 5.65 | 274 ± 5.2 | 
6 | OCCC#Cc1ccc(-c2ccc(C=NC3CCCCC3)s2)s1 [Compound 2c] | 51.2 ± 1.5 | 5.28 | 271 ± 2.8 | 
7 | NC(=S)NN=Cc1ccc(-c2ccc(C#CCCO)s2)s1 [Compound 2d] | 41.4 ± 0.6 | 5.42 | 224 ± 4.9 | 
8 | CC(C)(O)C#Cc1ccc(-c2ccc(C=O)s2)s1 [Compound 3, 5′‐(3‐hydroxy‐3‐methyl‐but‐1‐ynyl)‐[2,2′]bithiophenyl‐5‐carbaldehyde] | 94 ± 4.2 | 3.00 | 283 ± 6.7 | 
9 | CC(C)N=Cc1ccc(-c2ccc(C#CC(C)(C)O)s2)s1 [Compound 3a] | 49.5 ± 3.1 | 5.68 | 281 ± 6.2 | 
10 | CCCCN=Cc1ccc(-c2ccc(C#CC(C)(C)O)s2)s1 [Compound 3b] | 55.3 ± 5.1 | 5.34 | 296 ± 4.1 | 
11 | CC(C)(O)C#Cc1ccc(-c2ccc(C=NC3CCCCC3)s2)s1 [Compound 3c] | 40.1 ± 1.1 | 5.95 | 238.5 ± 1.9 | 
12 | CC(C)(O)C#Cc1ccc(-c2ccc(/C=N/NC(N)=S)s2)s1 [Compound 3d] | 39.5 ± 5.1 | 5.56 | 220 ± 3.8 | 
13 | OO [Compound H2O2, reference compound] |  |  |  | increase in the production of ROS [5]: 3.5 fold; increase in lipoperoxidation [6]: 3.6 fold
14 | C[C@@H]1CC[C@@]2(OC1)O[C@H]1[C@@H](O)[C@H]3[C@@H]4CC[C@H]5C[C@@H](O[C@@H]6O[C@H](CO)[C@H](O[C@@H]7O[C@H](CO)[C@@H](O)[C@H](O[C@@H]8OC[C@@H](O)[C@H](O)[C@H]8O)[C@H]7O[C@@H]7O[C@H](CO)[C@H](O)[C@H](O[C@@H]8O[C@H](CO)[C@@H](O)[C@H](O)[C@H]8O)[C@H]7O)[C@H](O)[C@H]6O)[C@H](O)C[C@]5(C)[C@H]4CC[C@]3(C)[C@H]1[C@@H]2C [Digitonin, digitonin, reference compound] |  |  |  | increase of PI-stained cells [7]: 3.10 fold
15 | CCCCCCCCCCCCCCCCOP(=O)([O-])OCC[N+](C)(C)C [Miltefosine, miltefosine, reference compound] |  |  |  | increase of cells in sub-G0 phase compared with the untreated control [8]: 12.33 fold
